SMILES strings stand for the structures.

From patent US10829490B2, “Substituted dihydropyrazino[1 ′,2′:1,5]pyrrolo[2,3-d]pyrimidine-based antiproliferative agents” (G1 Therapeutics, Inc., priority 2016, dated 2020) come the findings set out here.

What all share (format): biochemical
The target in one assay is CDK4/CyclinD1 (Homo sapiens (Human), UniProt P11802). Description: CDK4/cyclinD1 kinase assay, microfluidic kinase detection (Caliper, Nanosyn). To be noted: 12-point dose-response, ATP at Km (200 μM), enzyme 1 nM, incubation 10 hr; read-out: CDK4/Cyclin D1. As for the experimental part:
(§1) Selected compounds disclosed herein were tested in CDK4/cyclinD1, CDK2/CycA and CDK2/cyclinE kinase assays by Nanosyn (Santa Clara, Calif.) to determine their inhibitory effect on these CDKs. The assays were performed using microfluidic kinase detection technology (Caliper Assay Platform). The compounds were tested in 12-point dose-response format in singlicate at Km for ATP. Phosphoacceptor substrate peptide concentration used was 1 μM for all assays and Staurosporine was used as the reference compound for all assays. Specifics of each assay are as described below:
CDK4/CyclinD1: Enzyme concentration: 1 nM; ATP concentration: 200 μM; Incubation time: 10 hr.

For a further assay, the target named is CDK2/CyclinE (Homo sapiens (Human), UniProt P24941). Kind of assay: CDK2/cyclinE kinase assay, microfluidic kinase detection (Caliper, Nanosyn). Particulars: 12-point dose-response, ATP at Km (100 μM), enzyme 0.28 nM, incubation 1 hr; read-out: CDK2/Cyclin E. As for the experimental part:
as §1
CDK2/CyclinE: Enzyme concentration: 0.28 nM; ATP concentration: 100 μM; Incubation time: 1 hr.

Another assay concerns the target CDK2/CyclinA (Homo sapiens (Human), UniProt P24941). Description: CDK2/CycA kinase assay, microfluidic kinase detection (Caliper, Nanosyn). Particulars: 12-point dose-response, ATP at Km (50 μM), enzyme 0.2 nM, incubation 3 hr; read-out: CDK2/Cyclin A. As for the experimental part: as §1
CDK2/CyclinA: Enzyme concentration: 0.2 nM; ATP concentration: 50 μM; Incubation time: 3 hr.

Another assay deals with CDK6/Cyclin D3 (Homo sapiens (Human), UniProt Q00534). Kind of assay: CDK6/Cyclin D3 kinase assay (Biological Table 3). As for the experimental part:
[Worded in the source for another target; this target is reported under the same test.] Selected compounds disclosed herein were tested in CDK4/cyclinD1, CDK2/CycA and CDK2/cyclinE kinase assays by Nanosyn (Santa Clara, Calif.) to determine their inhibitory effect on these CDKs. The assays were performed using microfluidic kinase detection technology (Caliper Assay Platform). The compounds were tested in 12-point dose-response format in singlicate at Km for ATP. Phosphoacceptor substrate peptide concentration used was 1 μM for all assays and Staurosporine was used as the reference compound for all assays.

The target of a further assay is CDK9/Cyclin T (Homo sapiens (Human), UniProt P50750). Kind of assay: CDK9/Cyclin T kinase assay (Biological Table 3).
The target in the next assay is CDK5/p35 (Homo sapiens (Human), UniProt Q00535). Description: CDK5/p35 kinase inhibition (Biological Table 1).
For the next assay, the target named is CDK6/CycD3 (Homo sapiens (Human), UniProt Q00534). Kind of assay: CDK6/CycD3 kinase inhibition (Biological Table 1).
A further assay addresses CDK9/CycT (Homo sapiens (Human), UniProt P50750). Kind of assay: CDK9/CycT kinase inhibition (Biological Table 2).
The target in the next assay is CDK4/CycD (Homo sapiens (Human), UniProt P11802). Kind of assay: CDK4/CycD kinase inhibition (Biological Table 1).
In the next assay the target is CDK2/CycE (Homo sapiens (Human), UniProt P24941). Description: CDK2/CycE kinase inhibition (Biological Table 1).
In a further assay the target is CDK7/CycH/MAT1 (Homo sapiens (Human), UniProt P50613). Kind of assay: CDK7/CycH/MAT1 kinase inhibition (Biological Table 2).
The next assay addresses CDK5/p25 (Homo sapiens (Human), UniProt Q00535). Kind of assay: CDK5/p25 kinase inhibition (Biological Table 2).
The target of the next assay is CDK2/CycA (Homo sapiens (Human), UniProt P24941). Description: CDK2/CycA kinase inhibition (Biological Table 1).

Sequence of CDK5/p25 (Q00535 whole entry): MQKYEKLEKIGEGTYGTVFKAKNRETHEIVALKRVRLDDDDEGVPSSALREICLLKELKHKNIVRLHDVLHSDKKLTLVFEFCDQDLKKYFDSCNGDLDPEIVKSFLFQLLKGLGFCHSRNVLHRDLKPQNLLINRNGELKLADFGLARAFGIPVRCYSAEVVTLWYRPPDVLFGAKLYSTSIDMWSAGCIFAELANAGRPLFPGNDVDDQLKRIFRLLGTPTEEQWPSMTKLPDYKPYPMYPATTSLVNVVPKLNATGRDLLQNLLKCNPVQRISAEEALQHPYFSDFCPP
Sequence of CDK5/p35 (Q00535 whole entry): as above
Sequence of CDK5/p35 (Q15078 whole entry partner): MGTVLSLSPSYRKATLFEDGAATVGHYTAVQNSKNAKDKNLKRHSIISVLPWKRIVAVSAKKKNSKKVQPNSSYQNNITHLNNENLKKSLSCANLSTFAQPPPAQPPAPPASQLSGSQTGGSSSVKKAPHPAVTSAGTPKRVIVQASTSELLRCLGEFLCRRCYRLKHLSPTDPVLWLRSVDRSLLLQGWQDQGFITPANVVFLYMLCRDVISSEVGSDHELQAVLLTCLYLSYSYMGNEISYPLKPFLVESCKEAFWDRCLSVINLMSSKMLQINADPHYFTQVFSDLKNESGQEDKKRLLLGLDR
Sequence of CDK6/Cyclin D3 (Q00534 whole entry): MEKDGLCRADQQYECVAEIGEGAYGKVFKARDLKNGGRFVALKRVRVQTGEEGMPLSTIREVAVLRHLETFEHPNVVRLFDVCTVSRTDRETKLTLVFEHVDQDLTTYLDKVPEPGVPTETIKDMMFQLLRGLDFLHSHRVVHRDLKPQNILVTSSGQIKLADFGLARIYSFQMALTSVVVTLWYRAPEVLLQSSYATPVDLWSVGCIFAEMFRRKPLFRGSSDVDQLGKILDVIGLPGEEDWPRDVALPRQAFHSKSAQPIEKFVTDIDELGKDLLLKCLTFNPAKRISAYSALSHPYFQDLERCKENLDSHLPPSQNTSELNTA
Sequence of CDK6/Cyclin D3 (P30281 whole entry partner): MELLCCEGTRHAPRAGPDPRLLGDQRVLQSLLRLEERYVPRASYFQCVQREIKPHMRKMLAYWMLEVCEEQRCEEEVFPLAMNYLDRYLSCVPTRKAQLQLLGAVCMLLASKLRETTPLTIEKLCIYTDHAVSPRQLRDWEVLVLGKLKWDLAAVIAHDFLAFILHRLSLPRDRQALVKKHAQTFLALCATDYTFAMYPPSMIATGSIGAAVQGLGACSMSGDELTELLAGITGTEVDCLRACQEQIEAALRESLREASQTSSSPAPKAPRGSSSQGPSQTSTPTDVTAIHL
Sequence of CDK6/CycD3 (Q00534 whole entry): as the sequence (Q00534 whole entry) above
Sequence of CDK6/CycD3 (P30281 whole entry partner): as the sequence (P30281 whole entry partner) above
Sequence of CDK9/Cyclin T (P50750 whole entry): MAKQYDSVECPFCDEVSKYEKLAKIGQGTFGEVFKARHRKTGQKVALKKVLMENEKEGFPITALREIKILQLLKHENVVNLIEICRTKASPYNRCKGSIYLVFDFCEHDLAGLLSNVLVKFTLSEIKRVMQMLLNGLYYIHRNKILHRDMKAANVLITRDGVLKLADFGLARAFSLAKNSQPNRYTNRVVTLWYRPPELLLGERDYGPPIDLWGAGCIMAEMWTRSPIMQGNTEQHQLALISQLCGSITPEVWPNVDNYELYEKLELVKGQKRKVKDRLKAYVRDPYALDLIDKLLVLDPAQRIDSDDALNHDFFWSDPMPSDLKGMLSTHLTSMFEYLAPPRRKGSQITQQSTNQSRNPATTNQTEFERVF
Sequence of CDK9/Cyclin T (O60563 whole entry partner): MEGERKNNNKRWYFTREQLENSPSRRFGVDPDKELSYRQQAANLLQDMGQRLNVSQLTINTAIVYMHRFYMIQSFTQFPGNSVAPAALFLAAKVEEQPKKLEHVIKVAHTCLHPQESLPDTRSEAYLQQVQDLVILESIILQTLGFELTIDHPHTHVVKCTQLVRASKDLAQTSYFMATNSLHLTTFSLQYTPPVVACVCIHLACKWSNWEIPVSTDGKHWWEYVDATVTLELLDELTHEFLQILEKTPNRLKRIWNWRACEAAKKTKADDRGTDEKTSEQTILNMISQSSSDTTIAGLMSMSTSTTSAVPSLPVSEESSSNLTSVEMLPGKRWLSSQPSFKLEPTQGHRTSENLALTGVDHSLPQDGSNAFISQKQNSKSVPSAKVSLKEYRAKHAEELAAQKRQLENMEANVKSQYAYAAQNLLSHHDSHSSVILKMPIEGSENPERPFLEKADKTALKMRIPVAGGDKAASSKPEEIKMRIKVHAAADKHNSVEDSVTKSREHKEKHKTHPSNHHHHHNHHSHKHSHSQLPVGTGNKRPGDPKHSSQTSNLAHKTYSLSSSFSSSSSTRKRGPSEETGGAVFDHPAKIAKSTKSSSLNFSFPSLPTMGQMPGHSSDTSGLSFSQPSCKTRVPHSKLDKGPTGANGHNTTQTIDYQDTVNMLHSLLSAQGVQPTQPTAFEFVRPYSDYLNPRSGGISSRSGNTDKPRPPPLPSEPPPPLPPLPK
Sequence of CDK9/CycT (P50750 whole entry): as the sequence (P50750 whole entry) above
Sequence of CDK9/CycT (O60563 whole entry partner): as the sequence (O60563 whole entry partner) above
Sequence of CDK4/CycD (P11802 whole entry): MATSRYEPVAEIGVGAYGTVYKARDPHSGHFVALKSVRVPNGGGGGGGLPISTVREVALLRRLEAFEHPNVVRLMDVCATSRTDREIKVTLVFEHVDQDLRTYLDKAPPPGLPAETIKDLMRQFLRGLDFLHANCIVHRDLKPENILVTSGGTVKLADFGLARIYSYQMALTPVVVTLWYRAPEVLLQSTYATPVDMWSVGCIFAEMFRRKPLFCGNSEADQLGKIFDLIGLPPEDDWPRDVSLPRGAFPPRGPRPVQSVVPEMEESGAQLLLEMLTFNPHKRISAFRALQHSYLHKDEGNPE
Sequence of CDK4/CycD (P24385 whole entry partner): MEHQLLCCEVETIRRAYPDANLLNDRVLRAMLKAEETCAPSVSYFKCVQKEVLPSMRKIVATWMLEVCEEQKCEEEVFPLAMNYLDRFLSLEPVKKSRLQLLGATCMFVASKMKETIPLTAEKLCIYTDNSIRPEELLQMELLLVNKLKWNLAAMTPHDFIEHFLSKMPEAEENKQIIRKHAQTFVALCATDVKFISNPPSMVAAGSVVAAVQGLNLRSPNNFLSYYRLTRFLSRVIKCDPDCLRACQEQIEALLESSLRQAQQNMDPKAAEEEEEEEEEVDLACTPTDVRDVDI
Sequence of CDK4/CyclinD1 (P11802 whole entry): as the sequence (P11802 whole entry) above
Sequence of CDK4/CyclinD1 (P24385 whole entry partner): as the sequence (P24385 whole entry partner) above
Sequence of CDK7/CycH/MAT1 (P50613 whole entry): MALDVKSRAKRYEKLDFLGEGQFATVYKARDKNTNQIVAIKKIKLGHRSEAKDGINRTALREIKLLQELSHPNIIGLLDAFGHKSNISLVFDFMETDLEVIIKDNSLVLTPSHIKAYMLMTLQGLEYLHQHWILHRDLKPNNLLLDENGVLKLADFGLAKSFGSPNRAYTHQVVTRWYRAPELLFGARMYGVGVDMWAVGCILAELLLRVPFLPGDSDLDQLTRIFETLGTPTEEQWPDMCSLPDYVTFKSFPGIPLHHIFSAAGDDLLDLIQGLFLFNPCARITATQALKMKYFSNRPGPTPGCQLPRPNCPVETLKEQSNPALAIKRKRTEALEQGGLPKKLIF
Sequence of CDK7/CycH/MAT1 (P51946 whole entry partner): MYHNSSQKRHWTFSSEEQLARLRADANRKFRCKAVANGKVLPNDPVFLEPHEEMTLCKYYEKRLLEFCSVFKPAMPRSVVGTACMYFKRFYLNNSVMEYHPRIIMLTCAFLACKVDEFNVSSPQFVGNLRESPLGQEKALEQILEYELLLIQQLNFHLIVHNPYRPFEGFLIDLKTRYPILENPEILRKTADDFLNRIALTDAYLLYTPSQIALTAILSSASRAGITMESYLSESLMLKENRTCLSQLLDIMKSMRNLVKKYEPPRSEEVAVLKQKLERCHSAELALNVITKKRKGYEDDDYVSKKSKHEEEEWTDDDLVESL
Sequence of CDK7/CycH/MAT1 (P51948 whole entry partner): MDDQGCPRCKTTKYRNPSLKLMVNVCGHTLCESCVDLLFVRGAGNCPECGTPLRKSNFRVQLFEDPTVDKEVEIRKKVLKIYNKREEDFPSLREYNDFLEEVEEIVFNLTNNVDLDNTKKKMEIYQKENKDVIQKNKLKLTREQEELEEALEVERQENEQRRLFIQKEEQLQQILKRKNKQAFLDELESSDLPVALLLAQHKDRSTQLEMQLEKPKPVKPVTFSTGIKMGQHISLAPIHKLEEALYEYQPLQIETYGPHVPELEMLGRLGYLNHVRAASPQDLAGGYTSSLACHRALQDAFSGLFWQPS

With `CO[C@H]1CC[C@@]2(CC1)CNC(=O)c1cc3cnc(Nc4ccc(N5CCN(C)CC5)cn4)nc3n12` [Compound 38, (1S,4S)-4-Methoxy-2′-((5-(4-methylpiperazin-1-yl)pyridin-2-yl)amino)-7′,8′-dihydro-6′H-spiro[cyclohexane-1,9′-pyrazino[1′,2′:1,5]pyrrolo [2,3-d]pyrimidin]-6′-one], the IC50 came out at 7 nM at CDK4/CyclinD1; 14000 nM on CDK2/CyclinE; 5000 nM on CDK2/CyclinA; 10 nM against CDK6/Cyclin D3; 200 nM on CDK9/Cyclin T.

`CN1CCN(c2ccc(Nc3ncc4cc5n(c4n3)C3(CCCCC3)C(=O)NC5)nc2)CC1` [Compound 33, 2′-((5-(4-Methylpiperazin-1-yl)pyridin-2-yl)amino)-6′,7′-dihydro-8′H-spiro[cyclohexane-1,9′-pyrazino [1′,2′:1,5]pyrrolo[2,3-d]pyrimidin]-8′-one]: the IC50 was determined as 6 nM at CDK4/CyclinD1; 4000 nM on CDK2/CyclinE; 2000 nM on CDK2/CyclinA; 20 nM against CDK6/Cyclin D3; 3000 nM on CDK9/Cyclin T.

For the molecule `CN1CCN(c2ccc(Nc3ncc4c(n3)N3CCCCC3CC4=O)nc2)CC1` (stereo not drawn) [Compound 7, 2-((5-(4-methylpiperazin-1-yl)pyridin-2-yl)amino)-6,6a,7,8,9,10-hexahydro-5H-pyrimido[5,4-c]quinolizin-5-one], the IC50 against CDK5/p35 was more than 100000 nM; at CDK6/CycD3 it was 1800 nM; on CDK9/CycT, more than 100000 nM; at CDK4/CycD it was 4700 nM; on CDK2/CycE it was more than 100000 nM; against CDK7/CycH/MAT1, more than 100000 nM. Further, the IC50 on CDK5/p25 and on CDK2/CycA was more than 100000 nM in each case.

In the case of `O=C1NCC2(CCCCC2)n2c1cc1cnc(N[C@H]3CC[C@@H](N4CCN(CC5CC5)CC4)CC3)nc12` [Compound 40, 2′-(((1S,4S)-4-(4-(Cyclopropylmethyl)piperazin-1-yl)cyclohexyl)amino)-7′,8′-dihydro-6′H-spiro [cyclohexane-1,9′-pyrazino[1′,2′:1,5]pyrrolo[2,3-d]pyrimidin]-6′-one], the IC50 is 90 nM at CDK4/CyclinD1; 5000 nM at CDK2/CyclinE; 2000 nM on CDK2/CyclinA; 500 nM against CDK6/Cyclin D3; 50 nM on CDK9/Cyclin T.

Turning to `CN1CCN(c2ccc(Nc3ncc4c(n3)N3C(=NCC35CCCCC5)C(=O)N4)nc2)CC1` [Compound 27, 2′-((5-(4-Methylpiperazin-1-yl)pyridin-2-yl)amino)-5′H-spiro[cyclohexane-1,9′-imidazo[2,1-h]pteridin]-6′(8′H)-one], the IC50 on CDK4/CyclinD1 was 9400 nM; at CDK2/CyclinE, more than 100000 nM; at CDK2/CyclinA, more than 100000 nM; against CDK6/Cyclin D3, 21000 nM; at CDK9/Cyclin T, more than 100000 nM.

`CN1CCN(c2ccc(Nc3ncc4cc5n(c4n3)C3(CCOCC3)CNC5=O)nc2)CC1` [Compound 34, 2′-((5-(4-Methylpiperazin-1-yl)pyridin-2-yl)amino)-2,3,5,6,7′,8′-hexahydro-6′H-spiro [pyran-4,9′-pyrazino [1′,2′:1,5]pyrrolo [2,3-d]pyrimidin]-6′-one]: the IC50 at CDK4/CyclinD1 worked out at 20 nM; on CDK2/CyclinE, 23000 nM; on CDK2/CyclinA, 14000 nM; at CDK6/Cyclin D3, 20 nM; against CDK9/Cyclin T it was 400 nM.

For the molecule `CO[C@H]1CC[C@]2(CC1)CNC(=O)c1cc3cnc(Nc4ccc(N5CCN(C)CC5)cn4)nc3n12` [Compound 39, (1R,4R)-4-Methoxy-2′-((5-(4-methylpiperazin-1-yl)pyridin-2-yl)amino)-7′,8′-dihydro-6′H-spiro [cyclohexane-1,9′-pyrazino[1′,2′:1,5]pyrrolo [2,3-d]pyrimidin]-6′-one], the IC50 at CDK4/CyclinD1 came out at 60 nM; at CDK2/CyclinE, 33000 nM; at CDK2/CyclinA, 19000 nM; at CDK6/Cyclin D3 it was 90 nM; against CDK9/Cyclin T, 200 nM.

`CCOC(=O)C1C(=O)c2cnc(Nc3ccc(N4CCN(C)CC4)cn3)nc2N2CCCCC12` (stereo not drawn) [Compound 8, ethyl 2-((5-(4-methylpiperazin-1-yl)pyridin-2-yl)amino)-5-oxo-6,6a,7,8,9,10-hexahydro-5H-pyrimido[5,4-c]quinolizine-6-carboxylate]: the IC50 on CDK5/p35 was more than 100000 nM; against CDK6/CycD3 it was 3500 nM; against CDK9/CycT it was more than 100000 nM; against CDK4/CycD it was 4100 nM; at CDK2/CycE it was more than 100000 nM; on CDK7/CycH/MAT1, more than 100000 nM. The IC50 at CDK5/p25 and on CDK2/CycA was more than 100000 nM each time.

`O=C1NCC2(CCCCC2)n2c1cc1cnc(N[C@H]3CC[C@H](N4CCN(CC5CC5)CC4)CC3)nc12` [Compound 36, 2′-(((1R,4R)-4-(4-(Cyclopropylmethyl)piperazin-1-yl)cyclohexyl)amino)-7′,8′-dihydro-6′H-spiro [cyclohexane-1,9′-pyrazino[1′,2′:1,5]pyrrolo[2,3-d]pyrimidin]-6′-one]: the IC50 was 4 nM at CDK4/CyclinD1; 300 nM at CDK2/CyclinE; 100 nM at CDK2/CyclinA; 30 nM against CDK6/Cyclin D3; 2 nM against CDK9/Cyclin T.

For the molecule `CN1CCN(c2ccc(Nc3ncc4cc5n(c4n3)C3(C=NC5)CCCCC3)nc2)CC1` [Compound 31, N-(5-(4-Methylpiperazin-1-yl)pyridin-2-yl)-6′H-spiro[cyclohexane-1,9′-pyrazino[1′,2′:1,5]pyrrolo[2,3-d]pyrimidin]-2′-amine], the IC50 came out at 0.6 nM at CDK4/CyclinD1; 40 nM at CDK2/CyclinE; 100 nM on CDK2/CyclinA; 1 nM against CDK6/Cyclin D3; 40 nM against CDK9/Cyclin T.

As for `CN1CCN([C@H]2CC[C@@H](Nc3ncc4cc5n(c4n3)C3(CCCCC3)CNC5=O)CC2)CC1` [Compound 41, 2′-(((1S,4S)-4-(4-Methylpiperazin-1-yl)cyclohexyl)amino)-7′,8′-dihydro-6′H-spiro[cyclohexane-1,9′-pyrazino[1′,2′:1,5]pyrrolo[2,3-d]pyrimidin]-6′-one], the IC50 at CDK4/CyclinD1 is 140 nM; on CDK2/CyclinE, 6000 nM; at CDK2/CyclinA, 2000 nM; against CDK6/Cyclin D3, 800 nM; on CDK9/Cyclin T, 70 nM.

For the molecule `CN1CCN(c2ccc(Nc3ncc4cc5n(c4n3)C3(CCCCC3)Cn3ccnc3-5)nc2)CC1` [Compound 25, N-(5-(4-Methylpiperazin-1-yl)pyridin-2-yl)-5′H -spiro[cyclohexane-1,6′-imidazo[2″,1″:3′,4′]pyrazino[1′,2′:1,5]pyrrolo[2,3-d]pyrimidin]-9′-amine], the IC50 at CDK4/CyclinD1 is 30 nM; at CDK2/CyclinE, 99000 nM; at CDK2/CyclinA, 59000 nM; against CDK6/Cyclin D3 it was 100 nM; against CDK9/Cyclin T, 6300 nM.

Take `CN1CCN(c2ccc(Nc3ncc4c(n3)N3C(CC4)C(=O)NCC3(C)C)nc2)CC1` (stereo not drawn) [Compound 2, 10,10-dimethyl-2-((5-(4-methylpiperazin-1-yl)pyridin-2-yl)amino)-6,6a,9,10-tetrahydro-5H-pyrazino[1′,2′:1,6]pyrido[2,3-d]pyrimidin-7(8H)-one]: the IC50 on CDK5/p35, against CDK6/CycD3, at CDK9/CycT, against CDK4/CycD, against CDK2/CycE and on CDK5/p25 was more than 100000 nM in each case. At CDK2/CycA, this molecule showed an IC50 of more than 100000 nM.

Take `CN1CCN([C@H]2CC[C@H](Nc3ncc4cc5n(c4n3)C3(CCCCC3)CNC5=O)CC2)CC1` [Compound 37, 2′-(((1R,4R)-4-(4-Methylpiperazin-1-yl)cyclohexyl)amino)-7′,8′-dihydro-6′H-spiro[cyclohexane-1,9′-pyrazino[1′,2′:1,5]pyrrolo[2,3-d]pyrimidin]-6′-one]: the IC50 came out at 6 nM on CDK4/CyclinD1; 400 nM at CDK2/CyclinE; 20 nM on CDK2/CyclinA; 40 nM against CDK6/Cyclin D3; 3 nM at CDK9/Cyclin T.
